Publication PMC2774623 (Biochemistry, 2008)
Values belong to the substance of their own block, whether it stands above or below them.

Key:
CK2 holoenzyme = experiment: Effect of CFTR peptides on substrate phosphorylation by CK2 holoenzyme; assay type: biochemical, human
CK2α catalytic subunit [1] = experiment: Effect of CFTR peptides on substrate phosphorylation by CK2α catalytic subunit; assay type: biochemical, human; details: below 400 μM, murine NBD1, Figure 3A
CK2α catalytic subunit [2] = details: β interaction with CK2α; cited from earlier work

- inhibition of holoenzyme-mediated NBD1 phosphorylation (CK2 holoenzyme; peptide concentration up to 800 μM, Figure 3B): no inhibition
Substance: GTIKENIIGVSYDEYRYR [CFTR 500−518 ΔF508]

- stimulation of I-2 and HSP90 phosphorylation by CK2 holoenzyme (CK2 holoenzyme; peptides 80 μM, I-2 2.5 μM, HSP90 0.5 μM, Figure 5A): no stimulation
Substance: GTIKENIIFGVSYDEYRYR [CFTR 500−518 wild type]
- effect on NBD1 phosphorylation by CK2α at lower peptide concentrations (CK2α catalytic subunit [1]): slight stimulatory effect

Substance: Δ wt: CK2 β-subunit; its interaction values with CK2α were from ref 29
- ka (M^−1 s^−1) × 10^3 (CK2α catalytic subunit [2]): 22.7 M^−1 s^−1 × 10^3
- kd (s^−1) × 10^−3 (CK2α catalytic subunit [2]): 0.93 s^−1 × 10^−3
